Test results reported in patent EP2041131B1, “AZAINDOLE DERIVATIVES WITH A COMBINATION OF PARTIAL NICOTINIC ACETYLCHOLINE RECEPTOR AGONISM AND DOPAMINE REUPTAKE INHIBITION” (Abbott Healthcare Products B.V., priority 2006, dated 2008).
Like-named read-outs stand apart in the source and are kept apart here.

Key:
rat striatal slices = assay: In vitro [^3H]-Dopamine release; type: cell-based
dopamine uptake sites = molecular target: T1, dopamine uptake sites (Rattus norvegicus, UniProt P23977); assay: In vitro [^3H]-Dopamine uptake in striatal synaptosomes; type: biochemical
T1 construct: the striatum was rapidly removed and a crude synaptosomal fraction (P2) was prepared; from tissue; host or cells: rat striatum, crude synaptosomal fraction (P2)
T1 sequence (P23977 whole entry): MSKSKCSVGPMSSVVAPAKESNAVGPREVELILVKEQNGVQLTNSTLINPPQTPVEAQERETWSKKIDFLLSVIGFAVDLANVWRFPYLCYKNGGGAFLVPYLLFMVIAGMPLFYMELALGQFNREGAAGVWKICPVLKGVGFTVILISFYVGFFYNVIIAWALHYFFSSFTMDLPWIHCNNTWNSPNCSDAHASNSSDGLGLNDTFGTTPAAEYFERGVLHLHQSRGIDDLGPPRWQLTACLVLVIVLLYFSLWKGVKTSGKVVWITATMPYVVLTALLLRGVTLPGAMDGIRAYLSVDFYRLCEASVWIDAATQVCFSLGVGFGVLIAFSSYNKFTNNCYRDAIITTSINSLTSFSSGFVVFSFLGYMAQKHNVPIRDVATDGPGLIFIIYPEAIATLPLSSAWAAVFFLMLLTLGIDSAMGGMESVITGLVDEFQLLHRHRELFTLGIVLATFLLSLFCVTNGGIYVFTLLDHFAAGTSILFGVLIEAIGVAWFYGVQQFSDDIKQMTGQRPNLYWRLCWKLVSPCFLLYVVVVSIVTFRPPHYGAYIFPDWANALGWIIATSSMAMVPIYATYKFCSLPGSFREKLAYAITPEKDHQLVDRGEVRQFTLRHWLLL
Description: Subsequently, [^3H]-dopamine (2x10^-7 M final concentration) was added and incubation was continued for 10 min. [^3H]-dopamine uptake was stopped by filtration and the synaptosomes were washed four times with phosphate buffered saline. The amount of [^3H]-dopamine in the synaptosomes was determined by Betaplate liquid scintillation counting. […] Inhibition of DA uptake was performed in duplicate.

[1] = K+ (10 mM) evoked release, rat striatal slices, compounds added at 10^-8 M and 10^-6 M, table does not say which concentration
[2] = rat striatal synaptosomes, 10^-9 to 10^-5 M, read-out: Functional activity re-uptake [^3H]-Dopamine pIC50 (converted)

SMILES	Functional activity release [^3H]-Dopamine % of control (rat striatal slices)	Functional activity release [^3H]-Dopamine % of control (rat striatal slices; [1])	IC50 (dopamine uptake sites; [2])	IC50 (dopamine uptake sites)
c1cnc2[nH]cc(C[C@H]3CCCN3)c2c1 (stereo in doubt) [Compound 96, (R)-3-pyrrolidin-2-ylmethyl-1H-pyrrolo-[2,3-b]pyridine, reference compound]	124 % of control	–	–	–
CN1CCC[C@@H]1Cc1c[nH]c2ncccc12 (stereo in doubt) [Compound 98, reference compound]	–	132 % of control	> 10 µM	–
CN1CCC[C@H]1Cc1c[nH]c2ncccc12 (stereo in doubt) [Compound 99, reference compound]	–	112 % of control	–	–
c1cnc2[nH]cc(C3CCCNC3)c2c1 (centres unmarked) [Compound 6, 3-piperidin-3-yl-1 H-pyrrolo[2,3-b]pyridine]	–	139 % of control	–	3.98 µM
Clc1ccc2c(C3CCCNC3)c[nH]c2n1 (centres unmarked) [Compound 13, 6-chloro-3-piperidin-3-yl-1 H-pyrrolo[2,3-b]pyridine]	–	174 % of control	1.58 µM	–
c1cnc2[nH]c([C@H]3CCCNC3)cc2c1 [Compound 26A, (S)-2-piperidin-3-yl-1H-pyrrolo[2,3-b]pyridine]	–	139 % of control	2.51 µM	–
c1cnc2[nH]c([C@@H]3CCCNC3)cc2c1 [Compound 26B, (R)-2-piperidin-3-yl-1H-pyrrolo[2,3-b]pyridine]	–	121 % of control	–	0.631 µM
Clc1ccc2cc(C3CCCNC3)[nH]c2n1 (centres unmarked) [Compound 32, 6-chloro-2-piperidin-3-yl-1H-pyrrolo[2,3-b]pyridine]	–	173 % of control	–	–
Clc1ccc2cc([C@@H]3CCCNC3)[nH]c2n1 [Compound 32B, (R)-6-chloro-2-piperidin-3-yl-1H-pyrrolo[2,3-b]pyridine]	–	170 % of control	–	0.398 µM
c1cnc2[nH]c(C[C@H]3CCCN3)cc2c1 [Compound 39A, (R)-2-pyrrolidin-2-ylmethyl-1H-pyrrolo[2,3-b]pyridine]	151 % of control	–	–	–
c1cnc2[nH]c(C[C@@H]3CCCN3)cc2c1 [Compound 39B, (S)-2-pyrrolidin-2-ylmethyl-1H-pyrrolo[2,3-b]pyridine]	–	133 % of control	–	–
CN1CCC[C@@H]1Cc1cc2cccnc2[nH]1 [Compound 41A, (R)-2-(1-Methyl-pyrrolidin-2-ylmethyl)-1H-pyrrolo[2,3-b]pyridine]	–	100 % of control	–	–
Clc1ccc2cc(C[C@H]3CCCN3)[nH]c2n1 [Compound 45A, (R)-6-chloro-2-pyrrolidin-2-ylmethyl-1H-pyrrolo[2,3-b]pyridine]	–	115 % of control	–	–
Clc1ccc2cc(C[C@@H]3CCCN3)[nH]c2n1 [Compound 45B, (S)-6-chloro-2-pyrrolidin-2-ylmethyl-1H-pyrrolo[2,3-b]pyridine]	–	153 % of control	2.51 µM	–
Brc1ccc2cc(C[C@H]3CCCN3)[nH]c2n1 [Compound 46A, (R)-6-bromo-2-pyrrolidin-2-ylmethyl-1H-pyrrolo[2,3-b]pyridine]	–	92 % of control	–	–
Brc1ccc2cc(C[C@@H]3CCCN3)[nH]c2n1 [Compound 46B, (S)-6-bromo-2-pyrrolidin-2-ylmethyl-1H-pyrrolo[2,3-b]pyridine]	–	123 % of control	–	–

SMILES	Functional activity release [^3H]-Dopamine % of control (rat striatal slices)	Functional activity release [^3H]-Dopamine % of control (rat striatal slices; [1])	IC50 (dopamine uptake sites; [2])	IC50 (dopamine uptake sites)
Fc1ccc2cc(C[C@H]3CCCN3)[nH]c2n1 [Compound 47A, (R)-6-fluoro-2-pyrrolidin-2-ylmethyl-1H-pyrrolo[2,3-b]pyridine]	–	137 % of control	–	–
Fc1ccc2cc(C[C@@H]3CCCN3)[nH]c2n1 [Compound 47B, (S)-6-fluoro-2-pyrrolidin-2-ylmethyl-1H-pyrrolo[2,3-b]pyridine]	–	128 % of control	3.98 µM	–
COc1ccc2cc(C[C@H]3CCCN3)[nH]c2n1 [Compound 49, (R)-6-methoxy-2-pyrrolidin-2-ylmethyl-1H-pyrrolo[2,3-b]pyridine]	160 % of control	–	–	–
Brc1cnc2[nH]c(C[C@H]3CCCN3)cc2c1 [Compound 52A, (R)-5-bromo-2-pyrrolidin-2-ylmethyl-1H-pyrrolo[2,3-b]pyridine]	135 % of control	–	–	–
c1cnc2[nH]c(C3CCNC3)cc2c1 (centres unmarked) [Compound 78, 2-pyrrolidin-3-yl-1H-pyrrolo[2,3-b]pyridine]	–	154 % of control	2 µM	–
c1cnc2[nH]c([C@H]3CCNC3)cc2c1 [Compound 78A, (S)-2-pyrrolidin-3-yl-1H-pyrrolo[2,3-b]pyridine]	–	109 % of control	3.98 µM	–
c1cnc2[nH]c([C@@H]3CCNC3)cc2c1 [Compound 78B, (R)-2-pyrrolidin-3-yl-1H-pyrrolo[2,3-b]pyridine]	–	187 % of control	1.58 µM	–
c1cnc2cc(C3CCNC3)[nH]c2c1 (centres unmarked) [Compound 79, 2-pyrrolidin-3-yl-1H-pyrrolo[3,2-b]pyridine]	–	119 % of control	6.31 µM	–
c1cnc2cc(C[C@H]3CCCN3)[nH]c2c1 [Compound 81A, (R)-2-pyrrolidin-2-ylmethyl-1H-pyrrolo[3,2-b]pyridine]	153 % of control	–	–	–
c1cnc2cc(C[C@@H]3CCCN3)[nH]c2c1 [Compound 81B, (S)-2-pyrrolidin-2-ylmethyl-1H-pyrrolo[3,2-b]pyridine]	120 % of control	–	–	–
COc1ccc2[nH]c(C[C@H]3CCCN3)cc2n1 [Compound 85, (R)-5-methoxy-2-pyrrolidin-2-ylmethyl-1H-pyrrolo[3,2-b]pyridine]	131 % of control	–	–	–
c1cnc2c(C[C@H]3CCCN3)c[nH]c2c1 [Compound 88, (R)-3-pyrrolidin-2-ylmethyl-1H-pyrrolo[3,2-b]pyridine]	–	110 % of control	7.94 µM	–
CC(NC(C)(C)C)C(=O)c1cccc(Cl)c1 (centres unmarked) [bupropion, reference compound]	–	124 % of control	3.98 µM	–
O=c1cccc2n1C[C@@H]1CNC[C@H]2C1 [cytisine, reference compound]	–	136 % of control	–	> 10 µM
CN1CCCC1c1cccnc1 (centres unmarked) [nicotine, reference compound]	–	180 % of control	–	> 10 µM
